System: SARS-associated coronavirus
Assay: organism not typed
Assay type: cell-based
Conditions: for EC50: Vero
[1] = Vero cell cultures, tested as in Example 1
[2] = Vero cell cultures, cytopathic effect scored 72-96 h after infection, mean of eight assays

For `O=c1cnn([C@@H]2O[C@H](CO)[C@@H](O)[C@H]2O)c(=O)[nH]1` [Compound 6-azauridine, 6-azauridine], the “effect on replication of the SARS-associated coronaviruses” value (from here on “effect on replication”) (Vero cells) was “inhibited replication of SARS-CV at non-toxic doses”, the “Selectivity Index” value (ratio CC50/EC50, Vero cells) was 6 and the “Selectivity Index” value (ratio CC50/EC50, Vero cells, listed as 6-azuridine) was 5.

With `COC(=O)[C@@]1(C)CC[C@]2(C)CC[C@]3(C)C(=CC(=O)C4[C@@]5(C)CCC(OC6OC(C(=O)NN)C(O)C(O)C6OC6OC(C(=O)NN)C(O)C(O)C6O)C(C)(C)C5CC[C@]43C)C2C1` (some centres unmarked) [Compound 7] the “Therap. IndexI” value (Vero cells) was 4 and the EC50 [1] was 16 µM.

For `COC(=O)[C@@]1(C)CC[C@]2(C)CC[C@]3(C)C(=CC(=O)C4[C@@]5(C)CCC(OC6OC(CO)C(O)C(O)C6OC6OC(CO)C(O)C(O)C6O)C(C)(C)C5CC[C@]43C)C2C1` (some centres unmarked) [Compound 8], the “Therap. IndexI” value (Vero cells) was 6 and the EC50 [1] was 8 µM.

With `CC1(C)C(OC2OC(C(=O)O)C(O)C(O)C2OC2OC(C(=O)O)C(O)C(O)C2O)CC[C@@]2(C)C1CC[C@]1(C)C2C(=O)C=C2C3C[C@@](C)(C(=O)O)CC[C@]3(C)CC[C@]21C.N` (some centres unmarked) [Glycyrrhizin Monoammonium Salt] the “Therap. IndexI” value (Vero cells) was 2 and the EC50 [1] was 327 µM.

`CC1(C)C(OC2OC(C(=O)O)C(O)C(O)C2OC2OC(C(=O)O)C(O)C(O)C2O)CC[C@]2(C)[C@H]3C(=O)C=C4[C@@H]5C[C@@](C)(C(=O)O)CC[C@]5(C)CC[C@@]4(C)[C@]3(C)CC[C@@H]12` (stereo partly drawn) [Glycyrrhizin, (3-beta,20-beta)-20-Carboxy-11-oxo-30-norolean-12-en-3-yl 2-O-beta-D-glucopyranuronosyl-alpha-D-glucopyranosiduronic acid] was tested, and the EC50 (compound added after virus adsorption, Vero cells) was 600 µg/mL, the EC50 (compound added during and after virus adsorption, Vero cells) was 300 µg/mL and the EC50 (compound added during virus adsorption, Vero cells) was 2400 µg/mL. The “Selectivity Index” value (after virus adsorption, CC50/EC50) was over 33 and the “Selectivity Index” value (during and after virus adsorption, CC50/EC50) was over 67.

For `COc1c(C)c2c(c(O)c1C/C=C(\C)CCC(=O)O)C(=O)OC2` [Mycophenolic acid], the “effect on replication” value (Vero cells) was “did not affect replication” and the EC50 [2] was over 50 µg/mL.

`NC(=O)c1[nH]nc([C@@H]2O[C@H](CO)[C@@H](O)[C@H]2O)c1O` [Pyrazofurin] was tested, and the “effect on replication” value (Vero cells) was “inhibited replication of SARS-CV at non-toxic doses” and the “Selectivity Index” value (ratio CC50/EC50, Vero cells) was 12.

For `NC(=O)c1ncn([C@@H]2O[C@H](CO)[C@@H](O)[C@H]2O)n1` [Ribavirin], the “effect on replication” value (Vero cells) was “did not affect replication” and the EC50 [2] was over 1000 µg/mL.

— patent US20070099855A1 (priority 2003, published 2007)
